# Reference: the RepoRT retention time repository (doi:10.1039/c6ra10883k)
# Assay: Phenomenex Kinetex XB-C18, 100 × 2.1 mm, 1.7 µm, 35 °C, 0.3 mL/min, estimated dead time 0.73 min; A: water + 0.1% formic acid; B: acetonitrile + 0.1% formic acid; gradient (min/%B) 0/5 1/5 2/10 9/33 15/46 16/70 21/90 22/90
# Conditions: stereoisomer not certain
row,Compound,LC retention time [min]
1,CC(C)=CCCC(C)(O)C1CCC2(C)C1C(O)CC1C3(C)CCC(O)C(C)(C)C3C(OC3OC(CO)C(O)C(O)C3OC3OC(CO)C(O)C(O)C3O)CC12C (configuration not stated),10.1
2,O=c1cc(-c2ccc(O)c(O)c2)oc2cc(OC3OC(CO)C(O)C(O)C3O)cc(O)c12 (configuration not stated),6.28
3,CC(C)=CCCC(C)(O)C1CCC2(C)C1C(O)CC1C3(C)CCC(O)C(C)(C)C3C(OC3OC(CO)C(O)C(O)C3OC3OC(C)C(O)C(O)C3O)CC12C (configuration not stated),10.9
4,CC(C)=CCCC(C)(OC1OC(CO)C(O)C(O)C1O)C1CCC2(C)C1C(O)CC1C3(C)CCC(OC4OC(CO)C(O)C(O)C4OC4OC(CO)C(O)C(O)C4O)C(C)(C)C3CCC12C (configuration not stated),12.4
5,COc1cc(C=CCO)cc(OC)c1OC1OC(CO)C(O)C(O)C1O (configuration not stated),3.9
6,CC(C)=CCCC(C)(OC1OC(CO)C(O)C(O)C1O)C1CCC2(C)C1C(O)CC1C3(C)CCC(OC4OC(CO)C(O)C(O)C4OC4OC(CO)C(O)C(O)C4O)C(C)(C)C3=CC(O)C12C (configuration not stated),8.82
7,CC(C)=CCCC(C)(OC1OC(COC2OC(CO)C(O)C(O)C2O)C(O)C(O)C1O)C1CCC2(C)C1C(O)CC1C3(C)CCC(OC4OC(CO)C(O)C(O)C4OC4OC(CO)C(O)C(O)C4O)C(C)(C)C3CCC12C (configuration not stated),10.9
8,C=C(CCC=C(C)C)C1CCC2(C)C1C(O)CC1C3(C)CCC(O)C(C)(C)C3C(OC3OC(CO)C(O)C(O)C3O)CC12C (configuration not stated),14.9
9,CC(C)=CCCC(C)(OC1OC(CO)C(O)C(O)C1O)C1CCC2(C)C1C(O)CC1C3(C)CCC(OC4OC(CO)C(O)C(O)C4OC4OC(CO)C(O)C(O)C4O)C(C)(C)C3C(O)CC12C (configuration not stated),9.5
10,CC1OC(OCC2OC(Oc3c(-c4ccc(O)cc4)oc4cc(O)cc(O)c4c3=O)C(O)C(O)C2O)C(O)C(O)C1O (configuration not stated),6.6
11,CC(C)=CCCC(C)(OC1OC(CO)C(O)C(O)C1O)C1CCC2(C)C1C(O)CC1C3(C)CCC(O)C(C)(C)C3C(OC3OC(COC4OC(CO)C(O)C(O)C4O)C(O)C(O)C3O)CC12C (configuration not stated),7.28
12,O=c1cc(-c2ccc(O)c(O)c2)oc2cc(O)cc(O)c12,8.91
13,COc1cc(C=CC(=O)O)ccc1O,5.97
14,CC(C)=CCCC(C)(OC1OC(CO)C(O)C(O)C1O)C1CCC2(C)C1C(O)CC1C3(C)CCC(OC4OC(CO)C(O)C(O)C4OC4OC(COC(=O)CC(=O)O)C(O)C(O)C4O)C(C)(C)C3CCC12C (configuration not stated),12.7
15,CCCC=C1OC(=O)C2=C1CCC=C2,16.4
16,O=c1c(OC2OC(CO)C(O)C(O)C2O)c(-c2ccc(O)cc2)oc2cc(O)cc(O)c12 (configuration not stated),6.86
17,O=C(C=Cc1ccc(O)c(O)c1)OC1CC(O)(C(=O)O)CC(OC(=O)C=Cc2ccc(O)c(O)c2)C1O (configuration not stated),6.92
18,CC(C)=CCCC(C)(OC1OC(COC2OC(CO)C(O)C(OC3OCC(O)C(O)C3O)C2O)C(O)C(O)C1O)C1CCC2(C)C1C(O)CC1C3(C)CCC(OC4OC(CO)C(O)C(O)C4OC4OC(CO)C(O)C(O)C4O)C(C)(C)C3CCC12C (configuration not stated),10.5
19,O=C(C=Cc1ccc(O)cc1)C1=C(O)C2=C(OC(C(O)C(O)C(O)CO)C2C2=C(O)C(=C(O)C=Cc3ccc(O)cc3)C(=O)C(O)(C3OC(CO)C(O)C(O)C3O)C2=O)C(O)(C2OC(CO)C(O)C(O)C2O)C1=O (configuration not stated),6.67
20,CC(C)=CCCC(C)(OC1OC(CO)C(O)C(O)C1O)C1CC(C)C2(C)C3CC(OC4OC(CO)C(O)C(O)C4OC4OC(CO)C(O)C(O)C4O)C4C(C)(C)C(O)CCC4(C)C3CC(O)C12 (configuration not stated),7.5
21,CC(C)=CCCC(C)(OC1OC(CO)C(O)C(O)C1O)C1CCC2(C)C1C(O)CC1C3(C)CCC(O)C(C)(C)C3CCC12C (configuration not stated),17.3

row,Compound,LC retention time [min]
1,CC(C)=CCCC(C)(OC1OC(COC2OCC(O)C(O)C2O)C(O)C(O)C1O)C1CCC2(C)C1C(O)CC1C3(C)CCC(OC4OC(CO)C(O)C(O)C4OC4OC(CO)C(O)C(O)C4O)C(C)(C)C3CCC12C (configuration not stated),11.6
2,CC1OC(OCC2OC(Oc3c(-c4ccc(O)c(O)c4)oc4cc(O)cc(O)c4c3=O)C(O)C(O)C2O)C(O)C(O)C1O (configuration not stated),5.99
3,CC(C)=CCCC(C)(OC1OC(COC2OC(CO)C(O)C(OC3OCC(O)C(O)C3O)C2O)C(O)C(O)C1O)C1CCC2(C)C1C(O)CC1C3(C)CCC(OC4OC(CO)C(O)C(O)C4OC4OC(CO)C(O)C(O)C4OC4OCC(O)C(O)C4O)C(C)(C)C3CCC12C (configuration not stated),9.85
4,CC(C)=CCCC(C)(OC1OC(COC2OC(CO)C(O)C(O)C2O)C(O)C(O)C1O)C1CCC2(C)C1C(O)CC1C3(C)CCC(OC4OC(CO)C(O)C(O)C4OC4OC(COC(=O)CC(=O)O)C(O)C(O)C4O)C(C)(C)C3CCC12C (configuration not stated),11.1
5,C=C(CCC=C(C)C)C1CCC2(C)C1C(O)CC1C3(C)CCC(O)C(C)(C)C3C(OC3OC(CO)C(O)C(O)C3OC3OCC(O)C(O)C3O)CC12C (configuration not stated),14
6,CC(C)=CCCC(C)(OC1OC(COC2OC(COC3OCC(O)C(O)C3O)C(O)C(O)C2O)C(O)C(O)C1O)C1CCC2(C)C1C(O)CC1C3(C)CCC(OC4OC(CO)C(O)C(O)C4OC4OC(CO)C(O)C(O)C4O)C(C)(C)C3CCC12C (configuration not stated),10.2
7,CC(C)=CCCC(C)(OC1OC(COC2OC(CO)C(O)C(O)C2O)C(O)C(O)C1O)C1CCC2(C)C1C(O)CC1C3(C)CCC(O)C(C)(C)C3C(OC3OC(CO)C(O)C(O)C3O)CC12C (configuration not stated),7.09
8,CC(C)=CCCC(C)(OC1OC(COC2OC(CO)C(O)C2O)C(O)C(O)C1O)C1CCC2(C)C1C(O)CC1C3(C)CCC(OC4OC(CO)C(O)C(O)C4OC4OC(CO)C(O)C(O)C4O)C(C)(C)C3CCC12C (configuration not stated),11.2
9,CC(C)=CCCC(C)(OC1OC(CO)C(O)C(O)C1O)C1CCC2(C)C1C(O)CC1C3(C)CCC(OC4OC(COC5OC(CO)C(O)C(O)C5O)C(O)C(O)C4O)C(C)(C)C3CCC12C (configuration not stated),13.2
10,O=c1c(O)c(-c2ccc(O)c(O)c2)oc2cc(O)cc(O)c12,8.93
11,CCCC=C1OC(=O)C2=C1CCC1C3C=C4C(=O)OC(=CCCC)C4(CC3)C21 (configuration not stated),18.2
12,CC(C)=CCCC(C)(O)C1CCC2(C)C1C(O)CC1C3(C)CCC(O)C(C)(C)C3C(O)CC12C (configuration not stated),16.6
13,O=C1C(=C(O)C=Cc2ccc(O)cc2)C(O)=C(C2OC(CO)C(O)C(O)C2O)C(=O)C1(O)C1OC(CO)C(O)C(O)C1O (configuration not stated),4.17
14,O=c1c(O)c(-c2ccc(O)cc2)oc2cc(O)cc(O)c12,10.3
15,O=C(C=Cc1ccc(O)cc1)C1=C(O)C2=C(OC3(C2)OCC(O)C(O)C3O)C(O)(C2OC(CO)C(O)C(O)C2O)C1=O (configuration not stated),6.76
16,O=c1c(O)c(-c2ccc(O)c(O)c2)oc2cc(OC3OC(CO)C(O)C(O)C3O)cc(O)c12 (configuration not stated),6.12
17,O=C(O)CC(C1=C(O)C(=C(O)C=Cc2ccc(O)cc2)C(=O)C(O)(C2OC(CO)C(O)C(O)C2O)C1=O)c1ccc(O)cc1 (configuration not stated),7.95
18,CC1(C)CCC2(C(=O)OC3OC(CO)C(O)C(O)C3O)CCC3(C)C(=CCC4C5(C)CCC(OC6OC(C(=O)O)C(O)C(O)C6OC6OC(CO)C(O)C(O)C6O)C(C)(C)C5CCC43C)C2C1 (configuration not stated),11.3
19,CC(C)=CCCC(C)(OC1OC(CO)C(O)C(O)C1O)C1CCC2(C)C1C(O)CC1C3(C)CCC(O)C(C)(C)C3C(OC3OC(CO)C(O)C(O)C3O)CC12C (configuration not stated),8.07
20,CC(C)=CCCC(C)(OC1OC(CO)C(O)C(O)C1O)C1CCC2(C)C1C(O)CC1C3(C)CCC(OC4OC(CO)C(O)C(O)C4O)C(C)(C)C3CCC12C (configuration not stated),15.4
21,CC(C)=CCCC(C)(OC1OC(CO)C(O)C(O)C1O)C1CCC2(C)C1C(O)CC1C3(C)CCC(O)C(C)(C)C3C(OC3OC(CO)C(O)C(O)C3OC3OCC(O)C(O)C3O)CC12C (configuration not stated),7.68
